{
  "source": "paper PMC11822212",
  "about": "“High-throughput screening identifies Aurora kinase B as a critical therapeutic target for Merkel cell carcinoma” (Nature Communications, 2025)",
  "format_in_all_cases": "cell-based, human",
  "key": {"MCC13 cells (VN-MCC)": {"test_system": "MCC13 cells (VN-MCC)", "assay": "qHTS cell viability (CellTiter-Glo, 72 h; primary and follow-up small molecule screen)", "conditions": "MCC13, 72h"}, "MCC26 cells (VN-MCC)": {"test_system": "MCC26 cells (VN-MCC)", "assay": "qHTS cell viability (CellTiter-Glo, 72 h; primary and follow-up small molecule screen)", "conditions": "MCC26, 72h"}, "UISO cells (VN-MCC)": {"test_system": "UISO cells (VN-MCC)", "assay": "qHTS cell viability (CellTiter-Glo, 72 h; primary and follow-up small molecule screen)", "conditions": "UISO, 72h"}, "WAGA cells (VP-MCC)": {"test_system": "WAGA cells (VP-MCC)", "assay": "qHTS cell viability (CellTiter-Glo, 72 h; primary and follow-up small molecule screen)", "conditions": "WAGA, 72h"}, "MKL-1 cells (VP-MCC)": {"test_system": "MKL-1 cells (VP-MCC)", "assay": "qHTS cell viability (CellTiter-Glo, 72 h; primary and follow-up small molecule screen)", "conditions": "MKL1, 72h"}, "MKL-2 cells (VP-MCC)": {"test_system": "MKL-2 cells (VP-MCC)", "assay": "qHTS cell viability (CellTiter-Glo, 72 h; primary and follow-up small molecule screen)", "conditions": "MKL2, 72h"}, "[1]": {"test_system": "VP-MCC cell lines (WAGA, MKL-1, MKL-2)", "assay": "qHTS cell viability, VP-MCC cell lines as a group (mean AUC, VP.MCC.avg)", "conditions": "re-tested in triplicate, follow-up screen"}, "GDSC cancer cell lines": {"test_system": "GDSC cancer cell lines", "assay": "Genomics of Drug Sensitivity in Cancer (GDSC) IC50 comparison across cancer cell lines", "conditions": "own IC50 estimates compared with public IC50 data", "method": "Palo Alto, CA, USA) for these compounds from our small molecule screen. Following the graphing format in the GDSC database, compounds were ranked by IC50 and plotted in Rstudio using ggplot2, ggrepel, and scales packages. page 9: Supplementary Fig. S6. Au rora kinase inhibi tors mor e potentl y reduc e viability in VP-MCC than VN-MCC. […] Cell viability was measured by CellTiter- Glo at 72 h and by manual cell counts at 144 h. […] Consistent across n = 3 replicates . B) IC50 values (molar) for each aurora kinase inhibitor in each MCC cell line. […] IC50 values from GDSC (Gray-scale and green) were combined with IC50 values determined in our study (purple) and then ranked. n = number of experimental replicates for each cell line."}},
  "data": [
    {"smiles": "CCn1cc(-c2ccnc3[nH]c(-c4cccc(CN(C)C)c4)cc23)c(-c2ccc(NC(=O)N(C)C)cc2)n1", "note": "[GSK-1070916A, reference compound]", "values": [
      {"measurement": "Percent viability", "setting": "MCC13 cells (VN-MCC); Log (M) -5.33646", "value": 0.9, "unit": "%"},
      {"measurement": "Percent viability", "setting": "MCC13 cells (VN-MCC); Log (M) -5.81358", "value": 37.2, "unit": "%"},
      {"measurement": "Percent viability", "setting": "MCC13 cells (VN-MCC); Log (M) -6.2907", "value": 74.5, "unit": "%"},
      {"measurement": "Percent viability", "setting": "MCC13 cells (VN-MCC); Log (M) -6.76782", "value": 88.4, "unit": "%"},
      {"measurement": "Percent viability", "setting": "MCC13 cells (VN-MCC); Log (M) -7.24494", "value": 96.7, "unit": "%"},
      {"measurement": "Percent viability", "setting": "MCC13 cells (VN-MCC); Log (M) -7.72207", "value": 113.8, "unit": "%"},
      {"measurement": "Percent viability", "setting": "MCC13 cells (VN-MCC); Log (M) -8.19919", "value": 87.1, "unit": "%"},
      {"measurement": "Percent viability", "setting": "MCC13 cells (VN-MCC); Log (M) -8.67631", "value": 100.5, "unit": "%"},
      {"measurement": "Percent viability", "setting": "MCC13 cells (VN-MCC); Log (M) -9.15343", "value": 112.0, "unit": "%"},
      {"measurement": "Percent viability", "setting": "MCC13 cells (VN-MCC); Log (M) -9.63055", "value": 98.4, "unit": "%"},
      {"measurement": "Percent viability", "setting": "MCC13 cells (VN-MCC); Log (M) -10.1077", "value": 100.0, "unit": "%"},
      {"measurement": "Percent viability", "setting": "MCC26 cells (VN-MCC); Log (M) -5.33646", "value": 11.3, "unit": "%"},
      {"measurement": "Percent viability", "setting": "MCC26 cells (VN-MCC); Log (M) -5.81358", "value": 9.7, "unit": "%"},
      {"measurement": "Percent viability", "setting": "MCC26 cells (VN-MCC); Log (M) -6.2907", "value": 42.5, "unit": "%"},
      {"measurement": "Percent viability", "setting": "MCC26 cells (VN-MCC); Log (M) -6.76782", "value": 75.5, "unit": "%"},
      {"measurement": "Percent viability", "setting": "MCC26 cells (VN-MCC); Log (M) -7.24494", "value": 88.6, "unit": "%"},
      {"measurement": "Percent viability", "setting": "MCC26 cells (VN-MCC); Log (M) -7.72207", "value": 92.0, "unit": "%"},
      {"measurement": "Percent viability", "setting": "MCC26 cells (VN-MCC); Log (M) -8.19919", "value": 93.6, "unit": "%"},
      {"measurement": "Percent viability", "setting": "MCC26 cells (VN-MCC); Log (M) -8.67631", "value": 92.5, "unit": "%"},
      {"measurement": "Percent viability", "setting": "MCC26 cells (VN-MCC); Log (M) -9.15343", "value": 92.1, "unit": "%"},
      {"measurement": "Percent viability", "setting": "MCC26 cells (VN-MCC); Log (M) -9.63055", "value": 87.6, "unit": "%"},
      {"measurement": "Percent viability", "setting": "MCC26 cells (VN-MCC); Log (M) -10.1077", "value": 89.3, "unit": "%"},
      {"measurement": "Percent viability", "setting": "UISO cells (VN-MCC); Log (M) -5.33646", "value": 0.3, "unit": "%"},
      {"measurement": "Percent viability", "setting": "UISO cells (VN-MCC); Log (M) -5.81358", "value": 33.6, "unit": "%"},
      {"measurement": "Percent viability", "setting": "UISO cells (VN-MCC); Log (M) -6.2907", "value": 52.9, "unit": "%"},
      {"measurement": "Percent viability", "setting": "UISO cells (VN-MCC); Log (M) -6.76782", "value": 71.1, "unit": "%"},
      {"measurement": "Percent viability", "setting": "UISO cells (VN-MCC); Log (M) -7.24494", "value": 86.6, "unit": "%"},
      {"measurement": "Percent viability", "setting": "UISO cells (VN-MCC); Log (M) -7.72207", "value": 91.6, "unit": "%"},
      {"measurement": "Percent viability", "setting": "UISO cells (VN-MCC); Log (M) -8.19919", "value": 90.7, "unit": "%"},
      {"measurement": "Percent viability", "setting": "UISO cells (VN-MCC); Log (M) -8.67631", "value": 81.3, "unit": "%"},
      {"measurement": "Percent viability", "setting": "UISO cells (VN-MCC); Log (M) -9.15343", "value": 106.7, "unit": "%"},
      {"measurement": "Percent viability", "setting": "UISO cells (VN-MCC); Log (M) -9.63055", "value": 103.4, "unit": "%"},
      {"measurement": "Percent viability", "setting": "UISO cells (VN-MCC); Log (M) -10.1077", "value": 104.7, "unit": "%"},
      {"measurement": "Percent viability", "setting": "WAGA cells (VP-MCC); Log (M) -5.33646", "value": 2.1, "unit": "%"},
      {"measurement": "Percent viability", "setting": "WAGA cells (VP-MCC); Log (M) -5.81358", "value": 12.6, "unit": "%"},
      {"measurement": "Percent viability", "setting": "WAGA cells (VP-MCC); Log (M) -6.2907", "value": 31.4, "unit": "%"},
      {"measurement": "Percent viability", "setting": "WAGA cells (VP-MCC); Log (M) -6.76782", "value": 40.3, "unit": "%"},
      {"measurement": "Percent viability", "setting": "WAGA cells (VP-MCC); Log (M) -7.24494", "value": 26.0, "unit": "%"},
      {"measurement": "Percent viability", "setting": "WAGA cells (VP-MCC); Log (M) -7.72207", "value": 27.1, "unit": "%"},
      {"measurement": "Percent viability", "setting": "WAGA cells (VP-MCC); Log (M) -8.19919", "value": 28.3, "unit": "%"},
      {"measurement": "Percent viability", "setting": "WAGA cells (VP-MCC); Log (M) -8.67631", "value": 104.6, "unit": "%"},
      {"measurement": "Percent viability", "setting": "WAGA cells (VP-MCC); Log (M) -9.15343", "value": 100.0, "unit": "%"},
      {"measurement": "Percent viability", "setting": "WAGA cells (VP-MCC); Log (M) -9.63055", "value": 103.0, "unit": "%"},
      {"measurement": "Percent viability", "setting": "WAGA cells (VP-MCC); Log (M) -10.1077", "value": 100.0, "unit": "%"},
      {"measurement": "Percent viability", "setting": "MKL-1 cells (VP-MCC); Log (M) -5.33646", "value": 0.6, "unit": "%"},
      {"measurement": "Percent viability", "setting": "MKL-1 cells (VP-MCC); Log (M) -5.81358", "value": 0.7, "unit": "%"},
      {"measurement": "Percent viability", "setting": "MKL-1 cells (VP-MCC); Log (M) -6.2907", "value": 25.3, "unit": "%"},
      {"measurement": "Percent viability", "setting": "MKL-1 cells (VP-MCC); Log (M) -6.76782", "value": 39.6, "unit": "%"},
      {"measurement": "Percent viability", "setting": "MKL-1 cells (VP-MCC); Log (M) -7.24494", "value": 24.8, "unit": "%"},
      {"measurement": "Percent viability", "setting": "MKL-1 cells (VP-MCC); Log (M) -7.72207", "value": 28.8, "unit": "%"},
      {"measurement": "Percent viability", "setting": "MKL-1 cells (VP-MCC); Log (M) -8.19919", "value": 32.4, "unit": "%"},
      {"measurement": "Percent viability", "setting": "MKL-1 cells (VP-MCC); Log (M) -8.67631", "value": 60.3, "unit": "%"},
      {"measurement": "Percent viability", "setting": "MKL-1 cells (VP-MCC); Log (M) -9.15343", "value": 97.5, "unit": "%"},
      {"measurement": "Percent viability", "setting": "MKL-1 cells (VP-MCC); Log (M) -9.63055", "value": 94.1, "unit": "%"},
      {"measurement": "Percent viability", "setting": "MKL-1 cells (VP-MCC); Log (M) -10.1077", "value": 98.1, "unit": "%"},
      {"measurement": "Percent viability", "setting": "MKL-2 cells (VP-MCC); Log (M) -5.33646", "value": 1.0, "unit": "%"},
      {"measurement": "Percent viability", "setting": "MKL-2 cells (VP-MCC); Log (M) -5.81358", "value": 2.3, "unit": "%"},
      {"measurement": "Percent viability", "setting": "MKL-2 cells (VP-MCC); Log (M) -6.2907", "value": 21.5, "unit": "%"},
      {"measurement": "Percent viability", "setting": "MKL-2 cells (VP-MCC); Log (M) -6.76782", "value": 34.0, "unit": "%"},
      {"measurement": "Percent viability", "setting": "MKL-2 cells (VP-MCC); Log (M) -7.24494", "value": 33.8, "unit": "%"},
      {"measurement": "Percent viability", "setting": "MKL-2 cells (VP-MCC); Log (M) -7.72207", "value": 50.1, "unit": "%"},
      {"measurement": "Percent viability", "setting": "MKL-2 cells (VP-MCC); Log (M) -8.19919", "value": 59.6, "unit": "%"},
      {"measurement": "Percent viability", "setting": "MKL-2 cells (VP-MCC); Log (M) -8.67631", "value": 59.6, "unit": "%"},
      {"measurement": "Percent viability", "setting": "MKL-2 cells (VP-MCC); Log (M) -9.15343", "value": 98.0, "unit": "%"},
      {"measurement": "Percent viability", "setting": "MKL-2 cells (VP-MCC); Log (M) -9.63055", "value": 107.1, "unit": "%"},
      {"measurement": "Percent viability", "setting": "MKL-2 cells (VP-MCC); Log (M) -10.1077", "value": 88.8, "unit": "%"},
      {"measurement": "VP-MCC viability (in words)", "setting": "[1]", "value": "consistently and potently reduced VP-MCC viability"},
      {"measurement": "potency in VP-MCC cell lines versus other human cancer cell lines (GDSC)", "setting": "GDSC cancer cell lines", "value": "higher in VP-MCC cell lines than in hundreds of other human cancer cell lines"}
    ]}
  ]
}
